# Columns and labels:
# Scenedesmus = assay: Picolinafen on axenic Scenedesmus culture, total chlorophyll; assay type: cell-based; conditions: 10-day exposure
# Procedure: (§1) A stock solution of 50 micrograms picolinafen/L was prepared from technical grade picolinafen. Axenic algal cultures of Scenedesmus and Ankistrodesmus (green phytoplankton), Pithophora and Oedogonium (filamentous green), and Anabaena, Oscillatoria, and Pseudanabaena (blue-green) were grown. Stock material from these cultures was placed in 250 ml of CLII media (a known, defined algal growth medium). Following the addition of the algae, picolinafen was added to the beakers to achieve concentrations of 0, 1.5, 5, 10, 25, and 50 ppb. Each treatment was replicated three times and beakers were placed in Percival growth chambers that were set at 25° C., with a light intensity of 300 micromoles/square meter/second and a 16:8 photoperiod. The algae were given a 10 to 14 day incubation period, and depending on the growth form of the algae, either total chlorophyll, cell counts, or algal biomass were quantified as end points.
# Ankistrodesmus = assay: Picolinafen on axenic Ankistrodesmus culture, cell counts; assay type: cell-based; conditions: 10-day exposure
# Procedure: as §1
# Spirogyra = assay: Picolinafen on Spirogyra culture, biomass; assay type: cell-based; conditions: 10-day exposure
# Procedure: [The source words this procedure for another organism and reports this organism under the same test.] as §1
# [1] = tested on: Pseudanabaena (blue-green); assay: Picolinafen on axenic Pseudanabaena culture, cell counts; assay type: cell-based; conditions: 10-day exposure
# Procedure: as §1
# [2] = tested on: Pithophora (filamentous green); assay: Picolinafen on axenic Pithophora culture, biomass; assay type: cell-based; conditions: 10-day exposure
# Procedure: as §1
# Anabaena = assay: Picolinafen on axenic Anabaena culture, total chlorophyll; assay type: cell-based; conditions: for Total Chl: 10-day exposure
# Procedure: as §1
# hydrilla = assay: Impact on growth of hydrilla; assay type: in vivo; conditions: at levels showing significant control of the algal species
# Oedogonium = assay: Picolinafen on axenic Oedogonium culture, total chlorophyll and biomass; assay type: cell-based; conditions: 10-day exposure
# Procedure: as §1
# eurasian watermilfoil = assay: Impact on growth of eurasian watermilfoil; assay type: in vivo; conditions: at levels showing significant control of the algal species
# Oscillatoria = assay: Picolinafen on axenic Oscillatoria culture, total chlorophyll; assay type: cell-based; conditions: 10-day exposure
# Procedure: as §1
# algal species = assay: Algal culture exposure, overall observations; assay type: cell-based
# Procedure: as §1
compound,measurement,setting,value
"O=C(Nc1ccc(F)cc1)c1cccc(Oc2cccc(C(F)(F)F)c2)n1 [Picolinafen, N-(4-fluorophenyl)-6-[3-(trifluoromethyl)phenoxy]-2-pyridinecarboxamide]",Total Chl,Scenedesmus; 1.5 ppb,2427 (119) μg chl/g
same,Total Chl,Scenedesmus; 5 ppb,87 (16) μg chl/g
same,Total Chl,Scenedesmus; 10 ppb,15 (6) μg chl/g
same,Total Chl,Scenedesmus; 25 ppb,17 (8) μg chl/g
same,Total Chl,Scenedesmus; 50 ppb,12 (6) μg chl/g
same,Cell Count,Ankistrodesmus; 1.5 ppb,"3,025,323 cells/ml"
same,Cell Count,Ankistrodesmus; 5 ppb,"141,246 cells/ml"
same,Cell Count,Ankistrodesmus; 10 ppb,"96,622 cells/ml"
same,Cell Count,Ankistrodesmus; 25 ppb,"87,012 cells/ml"
same,Cell Count,Ankistrodesmus; 50 ppb,"81,706 cells/ml"
same,Biomass,Spirogyra; 1.5 ppb,16.2 mg dry wt./beaker
same,Biomass,Spirogyra; 5 ppb,6.9 mg dry wt./beaker
same,Biomass,Spirogyra; 10 ppb,3.0 mg dry wt./beaker
same,Biomass,Spirogyra; 25 ppb,3.8 mg dry wt./beaker
same,Biomass,Spirogyra; 50 ppb,3.3 mg dry wt./beaker
same,Cell Count,[1]; 1.5 ppb,"2,344 cells/ml"
same,Cell Count,[1]; 5 ppb,89 cells/ml
same,Cell Count,[1]; 10 ppb,52 cells/ml
same,Cell Count,[1]; 25 ppb,98 cells/ml
same,Cell Count,[1]; 50 ppb,77 cells/ml
same,Biomass,[2]; 1.5 ppb,26.2 mg dry wt./beaker
same,Biomass,[2]; 5 ppb,19.1 mg dry wt./beaker
same,Biomass,[2]; 10 ppb,20.4 mg dry wt./beaker
same,Biomass,[2]; 25 ppb,14.8 mg dry wt./beaker
same,Biomass,[2]; 50 ppb,11.4 mg dry wt./beaker
same,tolerance of Anabaena compared to other algal species,Anabaena,highest level of tolerance
same,Total Chl,Anabaena; 1.5 ppb,880 μg chl.
same,Total Chl,Anabaena; 5 ppb,906 μg chl.
same,Total Chl,Anabaena; 10 ppb,685 μg chl.
same,Total Chl,Anabaena; 25 ppb,526 μg chl.
same,Total Chl,Anabaena; 50 ppb,101 μg chl.
same,impact upon the growth of hydrilla,hydrilla,substantially no impact
same,Biomass,Oedogonium; 1.5 ppb,0.064 mg dry wt./beaker
same,Total Chl,Oedogonium; 1.5 ppb,1522 μg chl.
same,Biomass,Oedogonium; 5 ppb,0.027 mg dry wt./beaker
same,Total Chl,Oedogonium; 5 ppb,1057 μg chl.
same,Biomass,Oedogonium; 10 ppb,0.019 mg dry wt./beaker
same,Total Chl,Oedogonium; 10 ppb,342 μg chl.
same,Biomass,Oedogonium; 25 ppb,0.011 mg dry wt./beaker
same,Total Chl,Oedogonium; 25 ppb,247 μg chl.
same,Biomass,Oedogonium; 50 ppb,0.005 mg dry wt./beaker
same,Total Chl,Oedogonium; 50 ppb,144 μg chl.
same,impact upon the growth of eurasian watermilfoil,eurasian watermilfoil,substantially no impact
same,Total Chl,Oscillatoria; 1.5 ppb,14 μg chl.
same,Total Chl,Oscillatoria; 5 ppb,10 μg chl.
same,Total Chl,Oscillatoria; 10 ppb,21 μg chl.
same,Total Chl,Oscillatoria; 25 ppb,17 μg chl.
same,Total Chl,Oscillatoria; 50 ppb,13 μg chl.
same,sensitivity of most algal species,algal species; concentrations of 10 ppb and less,highly sensitive
same,time to bleaching (visual observations),algal species; some of the test species,≤ 12 h
same,algacidal versus herbicidal activity in the aquatic environment,algal species; two aquatic macrophyte species compared with various algal species,greater algacidal than herbicidal activity
